Assay results as given in patent publication US8552002B2 (Novartis AG, priority 2004, dated 2013).
Like-named read-outs stand apart in the source and are kept apart here.

How the values were obtained:
[1] = target: T1, KDR (Homo sapiens, UniProt P35968); assay: Inhibitory activity against KDR (VEGF-R2), in vitro data of Examples 170 and 207; type: biochemical; conditions: read-out: KDR inhibition at 10 μM
T1 construct: expressed in transfected cells; host or cells: CHO cells
How it was run: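 KDR tyrosine phosphorylation detected by luminescence after overnight 4° C capture of 20 μg lysate protein with PY20:AP antibody. Lysates came from cells given compound for 2 h at 37° C, then final 20 ng/ml VEGF for 5 min; compound-free medium as control.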

[2] = target: T2, FGFR3 (K650E) (Homo sapiens, UniProt P22607, K650E); assay: Recombinant GST-FGFR-3-K650E tyrosine kinase assay (33P into poly(Glu,Tyr)); type: biochemical; conditions: read-out: FGFR3 (K650E) inhibition at 10 μM
T2 construct: amino acids 411-806 of the cytoplasmic domain of human FGFR-3, N-terminally fused to GST; made in house; host or cells: Sf9 insect cells (baculovirus)
T2 sequence (P22607 411-806 K650E): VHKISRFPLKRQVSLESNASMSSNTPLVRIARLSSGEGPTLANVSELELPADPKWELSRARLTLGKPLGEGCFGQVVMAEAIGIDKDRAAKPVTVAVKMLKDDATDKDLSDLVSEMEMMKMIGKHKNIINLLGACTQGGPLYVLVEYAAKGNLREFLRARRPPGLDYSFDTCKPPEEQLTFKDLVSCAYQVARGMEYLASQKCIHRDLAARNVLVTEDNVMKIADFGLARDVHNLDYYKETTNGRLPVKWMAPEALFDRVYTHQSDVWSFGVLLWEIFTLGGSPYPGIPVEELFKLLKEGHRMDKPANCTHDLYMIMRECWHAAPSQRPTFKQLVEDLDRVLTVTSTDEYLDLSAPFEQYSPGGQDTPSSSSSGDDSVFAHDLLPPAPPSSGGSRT

[3] = target: T3, Tek (Homo sapiens, UniProt Q02763); assay: Recombinant GST-Tek (Tie-2) tyrosine kinase assay (33P into poly(Glu,Tyr)); type: biochemical; conditions: Examples 1 to 169
T3 construct: amino acids 773-1124 of the cytoplasmic kinase domain of human Tek, N-terminally fused to GST; made in house; host or cells: Sf9 insect cells (baculovirus)
T3 sequence (Q02763 773-1124): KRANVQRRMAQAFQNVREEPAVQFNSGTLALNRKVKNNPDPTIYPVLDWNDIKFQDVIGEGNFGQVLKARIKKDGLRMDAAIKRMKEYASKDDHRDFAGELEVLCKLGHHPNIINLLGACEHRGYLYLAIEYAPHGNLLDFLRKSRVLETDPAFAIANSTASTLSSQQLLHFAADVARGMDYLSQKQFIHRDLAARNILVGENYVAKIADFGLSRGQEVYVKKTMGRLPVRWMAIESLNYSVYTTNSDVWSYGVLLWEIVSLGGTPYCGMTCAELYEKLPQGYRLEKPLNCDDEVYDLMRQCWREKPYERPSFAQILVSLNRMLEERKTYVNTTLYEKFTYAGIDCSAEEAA
How it was run: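 GST-fused human Tek kinase domain (aa 773-1124), baculovirus-expressed, 150 ng per reaction; 10 μg/mL poly(Glu,Tyr) 4:1, 4.0 μM [γ-33P]ATP, 3 mM MnCl2/3 mM MgCl2, pH 7.5, 30 min at ambient temperature. 33P uptake read on PVDF filters; IC50 by linear regression from four concentrations in duplicate.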

T1 sequence (P35968 20-1356): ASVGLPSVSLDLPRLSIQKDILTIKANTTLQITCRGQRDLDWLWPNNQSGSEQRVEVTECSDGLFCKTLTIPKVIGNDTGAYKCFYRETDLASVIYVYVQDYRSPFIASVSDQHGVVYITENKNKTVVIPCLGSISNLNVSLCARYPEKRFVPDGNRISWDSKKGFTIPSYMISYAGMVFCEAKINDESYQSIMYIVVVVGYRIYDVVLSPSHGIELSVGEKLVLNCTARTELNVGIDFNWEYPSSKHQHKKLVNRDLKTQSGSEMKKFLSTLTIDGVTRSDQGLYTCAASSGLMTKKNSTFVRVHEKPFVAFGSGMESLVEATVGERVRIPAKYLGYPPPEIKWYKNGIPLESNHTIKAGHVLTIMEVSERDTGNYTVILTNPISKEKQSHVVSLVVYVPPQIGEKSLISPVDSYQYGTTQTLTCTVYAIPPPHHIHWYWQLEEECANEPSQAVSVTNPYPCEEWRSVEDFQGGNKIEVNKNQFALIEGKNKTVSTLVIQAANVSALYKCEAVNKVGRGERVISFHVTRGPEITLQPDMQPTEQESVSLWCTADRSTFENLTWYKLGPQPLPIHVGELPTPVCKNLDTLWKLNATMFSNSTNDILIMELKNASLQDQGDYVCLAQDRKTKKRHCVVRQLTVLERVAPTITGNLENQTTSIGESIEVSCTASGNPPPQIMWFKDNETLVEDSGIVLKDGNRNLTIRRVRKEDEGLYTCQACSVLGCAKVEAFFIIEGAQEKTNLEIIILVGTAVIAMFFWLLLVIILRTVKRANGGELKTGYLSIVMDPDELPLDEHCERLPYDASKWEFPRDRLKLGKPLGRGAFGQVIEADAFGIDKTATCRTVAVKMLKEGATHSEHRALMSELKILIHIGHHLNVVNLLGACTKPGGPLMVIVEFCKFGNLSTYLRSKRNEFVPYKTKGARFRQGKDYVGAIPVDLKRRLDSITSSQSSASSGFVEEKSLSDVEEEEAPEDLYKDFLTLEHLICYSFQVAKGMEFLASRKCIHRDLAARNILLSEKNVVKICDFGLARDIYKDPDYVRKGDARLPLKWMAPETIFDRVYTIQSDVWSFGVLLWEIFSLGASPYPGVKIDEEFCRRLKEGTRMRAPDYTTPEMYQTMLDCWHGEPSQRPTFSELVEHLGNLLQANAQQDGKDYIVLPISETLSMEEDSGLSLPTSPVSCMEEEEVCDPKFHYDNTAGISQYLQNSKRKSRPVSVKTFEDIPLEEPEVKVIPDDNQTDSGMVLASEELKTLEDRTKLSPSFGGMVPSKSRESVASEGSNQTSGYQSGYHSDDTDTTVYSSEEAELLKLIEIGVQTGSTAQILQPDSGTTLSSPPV

Row | Compound | inhibition at 10 µM ([1]; 10 μM, Examples 1 to 169) [%] | inhibition at 10 µM ([2]; 10 μM, Examples 1 to 169) [%] | inhibition at 10 µM [3] [%] | melting point | inhibition at 10 µM [1] [%] | inhibition at 10 µM [2] [%]
1 | CN1CCN(c2cccc(Nc3cc(NC(=O)Nc4c(Cl)cccc4Cl)ncn3)c2)CC1 [Example 5, 1-(2,6-Dichloro-phenyl)-3-{6-[3-(4-methyl-piperazin-1-yl)-phenylamino]-pyrimidin-4-yl}-urea] | 67 to 100 | 27 to 100 | 12 to 100 | 209 to 212 °C |  | 
2 | Cc1cccc(Cl)c1NC(=O)Nc1cc(N[C@H]2CC[C@H](O)CC2)ncn1 [Example 90, 1-(2-Chloro-6-methyl-phenyl)-3-[6-((trans)-4-hydroxy-cyclohexylamino)-pyrimidin-4-yl]-urea] | 67 to 100 | 27 to 100 | 12 to 100 | 149 to 152 °C |  | 
3 | Cc1cccc(Cl)c1NC(=O)Nc1cc(Nc2ccc(OCC3CCN(C)CC3)cc2)ncn1 [Example 70, 1-(2-Chloro-6-methyl-phenyl)-3-{6-[4-(1-methyl-piperidin-4-ylmethoxy)-phenylamino]-pyrimidin-4-yl}-urea] | 67 to 100 | 27 to 100 | 12 to 100 | 178 to 180 °C |  | 
4 | CN1CCC(COc2cccc(Nc3cc(NC(=O)Nc4c(Cl)cc(Cl)cc4Cl)ncn3)c2)CC1 [Example 81, 1-{6-[3-(1-Methyl-piperidin-4-ylmethoxy)-phenylamino]-pyrimidin-4-yl}-3-(2,4,6-trichloro-phenyl)-urea] | 67 to 100 | 27 to 100 | 12 to 100 | 222 to 225 °C |  | 
5 | CC(C)Nc1cc(NC(=O)Nc2c(Cl)cc(Cl)cc2Cl)ncn1 [Example 67, 1-(6-Isopropylamino-pyrimidin-4-yl)-3-(2,4,6-trichloro-phenyl)-urea] | 67 to 100 | 27 to 100 | 12 to 100 | 218 to 220 °C |  | 
6 | Cc1cccc(Cl)c1NC(=O)Nc1cc(Nc2ccc(CN3CCN(C)CC3)cc2)ncn1 [Example 82, 1-(2-Chloro-6-methyl-phenyl)-3-{6-[4-(4-methyl-piperazin-1-ylmethyl)-phenylamino]-pyrimidin-4-yl}-urea] | 67 to 100 | 27 to 100 | 12 to 100 | 199 to 201 °C |  | 
7 | CC(C)(C)[Si](C)(C)O[C@H]1CC[C@H](Nc2cc(NC(=O)Nc3c(Cl)cccc3Cl)ncn2)CC1 [Example 91, 1-{6-[(trans)-4-(tert-Butyl-dimethyl-silanyloxy)-cyclohexylamino]-pyrimidin-4-yl}3-(2,6-dichloro-phenyl)-urea] |  |  | 12 to 100 | 211 to 212 °C | 67 to 100 | 27 to 100
8 | CN1CCN(c2ccc(Nc3cc(NC(=O)Nc4cc(Cl)c(Cl)cc4Cl)ncn3)cc2)CC1 [Example 74, 1-{6-[4-(4-Methyl-piperazin-1-yl)-phenylamino]-pyrimidin-4-yl}-3-(2,4,5-trichloro-phenyl)-urea] | 67 to 100 | 27 to 100 | 12 to 100 | 252 to 254 °C |  | 
9 | O=C(Nc1cc(N[C@H]2CC[C@H](OC(=O)Nc3c(Cl)cccc3Cl)CC2)ncn1)Nc1c(Cl)cccc1Cl [Example 66, (2,6-dichloro-phenyl)-carbamic acid 4-{6-[3-(2,6-dichloro-phenyl)-ureido]-pyrimidin-4-ylamino}-cyclohexylester] | 67 to 100 | 27 to 100 | 12 to 100 | 222 to 224 °C |  | 
10 | Cc1cccc(Cl)c1NC(=O)Nc1cc(N[C@H]2CC[C@H](O[Si](C)(C)C(C)(C)C)CC2)ncn1 [Example 89, 1-{6-[(trans)-4-(tert-Butyl-dimethyl-silanyloxy)-cyclohexylamino]-pyrimidin-4-yl}-3-(2-chloro-6-methyl-phenyl)-urea] |  |  | 12 to 100 | 218 to 220 °C | 67 to 100 | 27 to 100
11 | CN1CCN(c2ccc(Nc3cc(NC(=O)Nc4cccc(Cl)c4Cl)ncn3)cc2)CC1 [Example 77, 1-(2,3-Dichloro-Phenyl)-3-{6-[4-(4-methyl-piperazin-1-yl)-phenylamino]-pyrimidin-4-yl}-urea] | 67 to 100 | 27 to 100 | 12 to 100 | 279 to 281 °C |  | 
12 | CN1CCN(Cc2ccc(Nc3cc(NC(=O)Nc4c(Cl)cccc4Cl)ncn3)cc2)CC1 [Example 83, 1-(2,6-Dichloro-Phenyl)-3-{6-[4-(4-methyl-piperazin-1-ylmethyl)-phenylamino]-pyrimidin-4-yl}-urea] | 67 to 100 | 27 to 100 | 12 to 100 | 199 to 201 °C |  | 
13 | CN1CCN(c2ccc(N(C(=O)Nc3cccc(Cl)c3Cl)c3cc(N)ncn3)cc2)CC1 [Example 76, 1-(6-Amino-pyrimidin-4-yl}-3-(2,3-dichloro-phenyl)-1-[4-(4-methyl-piperazin-1-yl)-phenyl]-urea] | 67 to 100 | 27 to 100 | 12 to 100 | 280 to 282 °C |  | 
14 | CC(C)Nc1cc(NC(=O)Nc2c(Cl)cccc2Cl)ncn1 [Example 68, 1-(2,6-Dichloro-phenyl)-3-(6-isopropylamino-pyrimidin-4-yl)-urea] | 67 to 100 | 27 to 100 | 12 to 100 | 203 to 204 °C |  | 
15 | CN1CCN(Cc2ccc(Nc3cc(NC(=O)Nc4c(Cl)cc(Cl)cc4Cl)ncn3)cc2)CC1 [Example 84, 1-{6-[4-(4-Methyl-piperazin-1-ylmethyl)-phenylamino]-pyrimidin-4-yl}-3-(2,4,6-trichloro-phenyl)-urea] | 67 to 100 | 27 to 100 | 12 to 100 | 194 to 196 °C |  | 
16 | CN1CCN(c2ccc(Nc3cc(NC(=O)Nc4cc(Cl)ccc4Cl)ncn3)cc2)CC1 [Example 72, 1-(2,5-Dichloro-Phenyl)-3-{6-[4-(4-methyl-piperazin-1-yl)-phenylamino]-pyrimidin-4-yl}-urea] | 67 to 100 | 27 to 100 | 12 to 100 | 223 to 225 °C |  | 
17 | CN1CCN(C(=O)c2ccc(Nc3cc(NC(=O)Nc4c(Cl)cc(Cl)cc4Cl)ncn3)cc2)CC1 [Example 85, 1-{6-[4-(4-Methyl-piperazin-1-carbonyl)-phenylamino]-pyrimidin-4-yl}-3-(2,4,6-trichloro-phenyl)-urea] | 67 to 100 | 27 to 100 | 12 to 100 | 165 to 175 °C |  | 
18 | CN1CCC(COc2cccc(Nc3cc(NC(=O)Nc4c(Cl)cccc4Cl)ncn3)c2)CC1 [Example 80, 1-(2,6-Dichloro-Phenyl)-3-{6-[3-(1-methyl-piperidin-4-ylmethoxy)-phenylamino]-pyrimidin-4-yl}-urea] | 67 to 100 | 27 to 100 | 12 to 100 | 198 to 200 °C |  | 
19 | Cc1cccc(Cl)c1NC(=O)Nc1cc(NC(C)C)ncn1 [Example 65, 1-(2-Chloro-6-methyl-phenyl)-3-(6-isopropylamino-pyrimidin-4-yl)-urea] | 67 to 100 | 27 to 100 | 12 to 100 | 233 °C |  | 
20 | COc1ccc(Cl)c(NC(=O)N(C)c2cc(Nc3ccc(N4CCN(C)CC4)cc3)ncn2)c1Cl [Example 1, 3-(2,6-Dichloro-3-methoxy-phenyl)-1-methyl-1-{6-[4-(4-methyl-piperazin-1-yl)-phenylamino]-pyrimidin-4-yl}-urea] | 67 to 100 |  | 12 to 100 | 161.5 to 163 °C |  | 
21 | Cc1cccc(Cl)c1NC(=O)Nc1cc(Nc2cccc(OCC3CCN(C)CC3)c2)ncn1 [Example 79, 1-(2-Chloro-6-methyl-phenyl)-3-{6-[3-(1-methyl-piperidin-4-ylmethoxy)-phenylamino]-pyrimidin-4-yl}-urea] | 67 to 100 | 27 to 100 | 12 to 100 | 200 to 204 °C |  | 
22 | CN1CCN(c2ccc(Nc3cc(NC(=O)Nc4ccc(Cl)c(Cl)c4)ncn3)cc2)CC1 [Example 75, 1-(3,4-Dichloro-phenyl)-3-{6-[4-(4-methyl-piperazin-1-yl)-phenylamino]-pyrimidin-4-yl}-urea] | 67 to 100 | 27 to 100 | 12 to 100 | 260 to 262 °C |  | 
23 | COc1cc(OC)c(Cl)c(NC(=O)N(C)c2cc(Nc3ccc(N4CCN(C)CC4)cc3)ncn2)c1Cl [Example 2, 3-(2,6-Dichloro-3,5-dimethoxy-phenyl)-1-methyl-1-{6-[4-(4-methyl-piperazin-1-yl)-phenylamino]-pyrimidin-4-yl}-urea] | 67 to 100 | 27 to 100 | 12 to 100 | 221 °C (dec.) |  | 
24 | CN1CCN(c2ccc(Nc3cc(NC(=O)Nc4c(Cl)cc(Cl)cc4Cl)ncn3)cc2)CC1 [Example 73, 1-{6-[4-(4-Methyl-piperazin-1-yl)-phenylamino]-pyrimidin-4-yl}-3-(2,4,6-trichloro-phenyl)-urea] | 67 to 100 | 27 to 100 | 12 to 100 | 209 to 211 °C |  | 
